Experimental data from PubChem BioAssay AID449764 (Southern Research Specialized Biocontainment Screening …, 2010).

Test system: Mycobacterium tuberculosis H37Rv growth inhibition, no glycerol
Test: Confirmatory growth inhibition assay, Mycobacterium tuberculosis H37Rv, absence of glycerol (AID 449764);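 also: growth read after 7 days of incubation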
Settings: for IC90: measured here: IC90 growth inhibition

Structure (SMILES)	IC50	IC90
Cc1ccc2c(c1)c(C1=c3ccccc3=NC1=O)c(O)n2C	2.95 µM	4.82 µM
O=C(NNc1nc2ccccc2s1)c1ccccc1F	39.9 µM	59.2 µM
Cc1ccc(-c2csc(N3CCN(CCCn4c(-c5ccncc5)nc5ccccc54)CC3)n2)cc1	29.7 µM	48.3 µM
Cc1nnc(SCc2ccccc2Cl)n(N)c1=O	–	> 100 µM
CCCCOC(=O)CCN1C(=O)/C(=C2\SC(=S)N(CCC(=O)OCCCC)C2=O)SC1=S	5.44 µM	10.6 µM
CCCCCCCCCCC[N+](C)(C)CC/C=C1/c2ccccc2Sc2ccc(Cl)cc21	8.03 µM	9.28 µM
CCOc1cc(-c2c(C#N)c(=O)[nH]c3c2c(C)nn3-c2ccc(F)cc2)ccc1O	4.87 µM	8.73 µM
COC(=O)c1ccc(NC(=S)NC(=O)C2CCC2)cc1	43.6 µM	> 100 µM
CCCCOC(=O)NS(=O)(=O)c1sc(CC(C)C)cc1-c1ccc(Cn2c(CC)nc3c(C)cc(C)nc32)cc1	30.7 µM	47.2 µM
O=c1oc2ccccc2c2c1nc(C(F)(F)F)n2-c1ccccc1	13.9 µM	23.8 µM
CC1=NN(c2ccc(C)c(C)c2)C(=O)/C1=C\C=C\c1ccc([N+](=O)[O-])o1	10.9 µM	17.7 µM
Cc1cc(N2CCC(C)CC2)nc(-n2nc(C)cc2C)n1	0.97 µM	2.97 µM
CC(/C=N/n1c(C2CCCCC2)n[nH]c1=S)=C\c1ccccc1	80.8 µM	90.3 µM
Cc1[nH]c2ccccc2c1C(=O)COC(=O)c1ccc([N+](=O)[O-])s1	1.32 µM	3.24 µM
Cc1cccc(OCC(=O)NNC(=O)c2cc3ccccc3oc2=O)c1	–	> 100 µM
O=C(N[C@H]1CCC(=O)N(CCSc2ccc(Br)cc2)CC1)OCc1ccccc1	32.9 µM	46.6 µM
O=C1CN(CC(=O)N2CCCCC2)c2ccccc2O1	24.8 µM	27.1 µM
CC1(C)Cc2c(sc(NC(=O)c3ccc(C(=O)c4ccccc4)cc3)c2C(N)=O)C(C)(C)N1	22.9 µM	> 50 µM
CCCCC(O)(CCCC)C(=O)NN(C(=O)CCl)c1ccccc1	11.1 µM	22.8 µM
C/C(=N\Nc1nc2c(s1)CCCC2)c1ccccc1	30.6 µM	47.2 µM
Cc1ccc(C(C)C)c(OCC(=O)OCc2c(C)noc2C)c1	4.65 µM	6.88 µM
CSc1ccc(CNC(=O)c2ccc(NC(=O)C3=CSCCO3)cc2)cc1	7.07 µM	25.5 µM
COc1ccc(C2CC2/C(C)=N/OC(=O)c2ccc(F)cc2)cc1 (stereo not drawn)	25.3 µM	52.2 µM

Structure (SMILES)	IC50	IC90
CCn1c(NC(=O)c2nn(C)cc2Br)nc2ccccc21	9.5 µM	16.8 µM
COc1ccc(C(CCN2CCCCC2)c2c(OC)cc(OC)c3c(-c4ccccc4)cc(=O)oc23)cc1 (stereo not drawn)	18.9 µM	26.8 µM
NN(Cc1ccccc1)C(=S)Nc1ccc(Cl)c(Cl)c1	25.2 µM	39.4 µM
O=C(CSc1nn(-c2ccc(F)cc2)c(=S)s1)NCC1CCCO1 (stereo not drawn)	20.7 µM	> 100 µM
CCOC(=O)c1c(NC(=O)CCl)sc(CN(C)C)c1-c1ccccc1	2.99 µM	10.7 µM
Cc1cc(Br)ccc1NC(=O)c1cnc(N2CCN(c3ccccn3)CC2)c2ccccc12	2.34 µM	3.49 µM
CC(CC(=O)Nc1ccc(Cl)c([N+](=O)[O-])c1)c1ccccc1 (stereo not drawn)	18 µM	29.4 µM
CCOc1ccc(C(=O)CCN2CCCCCC2)cc1	23.7 µM	26.2 µM
CC(C)CS(=O)(=O)C1=NN2C(=N)/C(=C\c3ccc(OC(=O)c4ccco4)cc3)C(=O)N=C2S1	20.9 µM	26.5 µM
Cc1ccccc1NC1=C/C(=N\S(=O)(=O)c2cccs2)c2ccccc2C1=O	11.3 µM	12.3 µM
CC(NC(=O)CCl)c1ccc(Cl)c(Cl)c1 (stereo not drawn)	4.1 µM	7.74 µM
O=C(CSCc1ccc([N+](=O)[O-])cc1)N/N=C/c1ccncc1	11.3 µM	26 µM
O=C(NN=C1c2ccccc2-c2ccccc21)c1cccc(Br)c1	42.2 µM	> 100 µM
CCOC(=O)N1CCN(c2nc(N(c3ccccc3)c3ccccc3)nc(-n3ccnc3)n2)CC1	98.2 µM	> 100 µM
CCOC(=O)CSc1nn(-c2ccccc2)c(=S)s1	6.12 µM	6.9 µM
CC(C)Cc1ccc(C(C)C(N)=NCCc2ccccc2)cc1 (stereo not drawn)	24.1 µM	27.8 µM
O=C(Nc1cc(C(F)(F)F)ccc1Cl)C(Sc1cccc[n+]1[O-])c1ccccc1 (stereo not drawn)	43.7 µM	48.2 µM
O=c1c2cc(Br)cc(Br)c2oc2nc3n(c(=O)c12)CCCS3	10.4 µM	23.3 µM
CCN(Cc1ccccc1)c1ccc(/C=N/N=C(N)N)cc1	18.8 µM	28.1 µM
CCc1ccc2nc(N(CCCN(C)C)C(=O)c3ccc(S(=O)(=O)N4CCCc5ccccc54)cc3)sc2c1	35 µM	41 µM
CC(C)(C)c1ccc(OCCCC(=O)NC2=NCCS2)cc1	38.7 µM	48.9 µM
CCOc1ccc(N2CC(=O)Nc3ccccc3NCC2=O)cc1	55.7 µM	83.1 µM
